Data on 1 substance can be found in US20240270811A1, “Glycosylated Neuropeptide Derivative, Pharmaceutical Composition, Intranasal/Nasal Drop Formulation, and Use of Pharmaceutical Composition” (Tokyo University of Science Foundation, priority 2021, published 2024).

Where no end group is shown, it is not given here. The star is where a group is joined. X1 = CC(=O)N[C@@H]1[C@@H](O)[C@H](O[C@@H]2O[C@H](CO)[C@@H](O[C@@H]3O[C@H](CO[C@H]4O[C@H](CO)[C@@H](O)[C@H](O)[C@@H]4O[C@@H]4O[C@H](CO)[C@@H](O[C@@H]5O[C@H](CO[C@]6(C(=O)O)C[C@H](O)[C@@H](NC(C)=O)[C@H]([C@H](O)[C@H](O)CO)O6)[C@H](O)[C@H](O)[C@H]5O)[C@H](O)[C@H]4NC(C)=O)[C@@H](O)[C@H](O[C@H]4O[C@H](CO)[C@@H](O)[C@H](O)[C@@H]4O[C@@H]4O[C@H](CO)[C@@H](O[C@@H]5O[C@H](CO[C@]6(C(=O)O)C[C@H](O)[C@@H](NC(C)=O)[C@H]([C@H](O)[C@H](O)CO)O6)[C@H](O)[C@H](O)[C@H]5O)[C@H](O)[C@H]4NC(C)=O)[C@@H]3O)[C@H](O)[C@H]2NC(C)=O)[C@@H](CO)O[C@H]1NC(=O)C*

Series [1] can be described thus: Brain distribution by immunostaining and fluorescence quantification (Example 7). Format: in vivo. Particulars: 3.0 nmol/mouse intranasal. Here is the method:
Mice were intranasally administered with 16% DMSO or GLP-2 derivatives (3.0 nmol/mouse), and the brain was isolated 5 minutes, 10 minutes, 20 minutes and 60 minutes after the administration.
The brain isolated 5 minutes or 10 minutes after the intranasal administration was subjected to infiltration fixation with 4% PFA at 4° C. overnight without performing perfusion fixation. The isolation of the brain 20 minutes or 60 minutes after the intranasal administration was performed by the following process.
The mouse was fixed in a supine position under anesthesia with isoflurane, and the chest was incised. PBS and 4% PFA were perfused, in this order, from the left chamber of the heart throughout the whole body for fixing the tissue. The isolated brain was preserved in a 4% PFA solution. On the day following the isolation, the brain samples were substituted with 20% sucrose overnight (4° C.), and further with 30% sucrose overnight (4° C.). Thereafter, a frozen section with a thickness of 30 μm was prepared using a cryostat (CM3050S; Leica Microsystems).
Sections of the olfactory bulb (OB) including olfactory nerves, pons/principal sensory nucleus of trigeminal nerve (Pr5), hippocampus (HIP) and dorsomedial nucleus of the hypothalamus (DMH) were prepared by referring to Nissil staining images and the brain map (Paxinos and Franklin, 2003).
The frozen brain section was mounted on a slide glass, and a circle was drawn around the section with a liquid blocker. A blocking buffer was added inside the circle and the section was subjected to blocking for 30 minutes at room temperature. Thereafter, the section was added with a first antibody solution including a GLP-2 polyclonal antibody, diluted 200 times with a blocking solution, and subjected to incubation for 1 hour at room temperature. After washing three times with 1×PBS, the section was added with a second antibody solution including Alexa Fluor (trademark) 568 Goat Anti-Mouse IgG H&L, diluted 500 times with a BSA/PBS solution, and subjected to incubation for 1 hour at room temperature. After washing three times with 1×PBS, the section was mounted with ProLong (trademark) Diamond Antifade Mountant. After confirming the solidification of the mountant, the section was subjected to fluorescent observation and imaging with a confocal laser microscope (TCS SP8; Leica) and a software (Leica Application Suite X Software; Leica). Further, the fluorescent intensity in the image was calculated using the software and an average florescent intensity of each group was quantified.
The mice were intranasally administered with a PAS-CPP-GLP-2 (no sugar) or a PAS-CPP-GLP-2 (11-sugar).

The nature of series [2]: Amount of migration to brain quantified by GLP-2 ELISA. Format: in vivo. Particulars: in vivo, inhaled or intranasal, 6.0 nmol/mouse intranasal, brain isolated 20 minutes after administration, read-out: amount of GLP-2 derivative in brain. Here is the method: Mice were intranasally administered with 16% DMSO or GLP-2 derivatives (6.0 nmol/mouse). The brain was isolated 20 minutes after the administration, and homogenized with BioMasher II (Nippi, Tokyo, Japan). A sample was prepared by performing centrifugal separation by 1000×g for 15 minutes and collecting a supernatant. The amount of a GLP-2 derivative in the sample was quantified using a GLP-2 ELISA kit. Specifically, a cleaning process including filling each well of a measurement plate with a cleaning fluid (350 μL) and suctioning the cleaning fluid with a pipette was performed three times. Subsequently, a labeled antigen solution (40 μL), a sample (25 μL) and a specific antibody solution (50 μL) were added in this order to the well and mixed. The measurement plate was tightly sealed and allowed to stand for 18 hours at 4° C. The cleaning process was performed three times, and a SA-HRP solution (100 μL) was added and allowed to permeate for 1.5 hours at room temperature (60 rpm). […] Finally, an enzyme reaction stop solution (100 μL) was added and an absorbance at 490 nm was measured with ARVO (PerkinElmer Japan Co., Ltd., Kanagawa, Japan) to calculate the concentration of a GLP-2 derivative.
In general terms: An ELISA detects its analyte on a solid surface through an enzyme-linked reagent.

Series [3] is described as follows: Solubility of GLP-2/GLP-1 derivatives with respect to aqueous medium (PBS). Format: physicochemical. Particulars: for solubility with respect to PBS (FIG. 1): freeze-dried 5-200 nmol/tube, PBS added, ultrasonic treatment, overnight, supernatant OD 280 nm. Here is the method: Samples were prepared by dispensing a Milli-Q aqueous solution of PAS-CPP-GLP-2 (no sugar), PAS-CPP-GLP-2 (5-sugar) or PAS-CPP-GLP-2 (11-sugar) to a microtube by an amount of 5 nmol/tube, 30 nmol/tube, 60 nmol/tube, 120 nmol/tube or 200 nmol/tube, and freeze-drying the same. The freeze-dried samples were added with […] of PBS (Dulbecco's Phosphate Buffered Saline; Sigma-Aldrich, herein after the same), subjected to ultrasonic treatment, and allowed to stand overnight. Thereafter, the concentration of the peptide was measured. Specifically, a supernatant obtained by centrifuging the sample suspension was subjected to the measurement of OD (280 nm) with a spectrometer (NanoDrop™ 2000c spectrometer; Thermo Fisher Scientific K.K.)
Administration solutions were prepared by mixing a PAS-CPP-GLP-2 derivative (no sugar) or a PAS-CPP-GLP-2 derivative (11-sugar) with PBS. […] The concentration of each GLP-2 derivative was adjusted to 0.6 nmol/4 μL.
(§1) The concentration of a PAS-CPP-GLP-2 derivative (no sugar) or a PAS-CPP-GLP-2 derivative (11-sugar) was adjusted to 3.0 nmol/4 μL.

A short description of series [4]: Migration to central nervous system, optical imaging of brain sagittal sections (ICG-labelled derivatives). Type of series: in vivo, mouse. Particulars: for fluorescence in brain section: 3.0 nmol/4 μL intranasal. Here is the method: Administration solutions were prepared by completely dissolving a PAS-CPP-GLP-2 derivative (no sugar) labelled with ICG or a PAS-CPP-GLP-2 derivative (11-sugar) labelled with ICG in DMSO, and adjusting the final concentration of DMSO to 16% by adding PBS.
as §1
After anesthetizing mice with isoflurane using an all-in-one small animal anesthetizer, the administration solutions or 16% DMSO as a control was intranasally administered to the mice by the amount of 2 μL per nose cavity, 4 μL in total.
In order to observe the migration to the brain over time, the brain was isolated 5 minutes, 10 minutes, 20 minutes, 60 minutes and 90 minutes after the intranasal administration, respectively, and subjected to infiltration fixation with 4% paraformaldehyde (4% PFA) solution overnight. Subsequently, a sagittal section with a thickness of 2 mm at the left and the right from the center of the brain was prepared using a brain matrix (RBM-2000S, ASI). The section was placed in a dish and analyzed with an optical imaging apparatus (Clairvivo OPT plus, Shimadzu Corporation) at an excitation wavelength of 785 nm, fluorescence wavelength of 849 nm, and an exposure time: 6 seconds.

For “FFLIPKGRRRRRRRRGGHADGSFSDEMNTILDNLAARDFINWLIQTKITDC(X1)-OH [PAS-CPP-GLP-2 (11-sugar)]”, the “fluorescence at OB and Pr5” value in series [1] (5 minutes) and in series [1] (60 minutes) was “a significant degree of fluorescence was observed” each time. Besides, the “fluorescence at HIP and DMH” value in series [1] (20 minutes) was “intense fluorescence was observed”; in series [1] (60 minutes), “a significant degree of fluorescence was observed”. In addition, the “fluorescence intensity at OB or Pr5 compared with 5 minutes” value in series [1] (20 minutes) is given as “weaker than the fluorescence observed 5 minutes after the administration”. The “fluorescence intensity at OB and Pr5 compared with 5 minutes” value in series [1] (60 minutes) is reported as “weaker than the fluorescence observed 5 minutes after the administration”. The tissue level at time molar at 20 min in series [2] was found to be 0.0106 ± 0.000998 nmol/g. Moreover, the “solubility in PBS” value in series [3] (PBS) was “completely soluble in PBS”. Further, the “solubility with respect to PBS (FIG. 1)” value in series [3] (listed as GLP-2 derivatives (11-sugar)) is listed as “linearly improved”; in series [3] (listed as glycosylated GLP-2 derivative (11-sugar)) it was “improved solubility”. Moreover, the “state of derivative in PBS administration solution” value in series [3] (mixed with PBS, 0.6 nmol/4 μL) is on record as “completely dissolved”. Also, the “fluorescence in brain section” value is “fluorescence was observed” in series [4] (5 minutes after administration); “fluorescence was observed intensively” in series [4] (10 minutes after administration); “fluorescence was observed” in series [4] (20 minutes after administration); “a relatively strong degree of fluorescence was observed” in series [4] (60 minutes after administration); “fluorescence was not observed” in series [4] (90 minutes after administration). The “retention in brain compared with PAS-CPP-GLP-2 derivative (no sugar)” value in series [4] (intranasal, 5-90 minutes) was “remains in the brain for a longer time period”.
